This experiment addresses T1, human Orexin-2 receptor (Homo sapiens, UniProt O43614).
T1 construct: expressed in transfected cells; host or cells: HEK293 cells (transient transfection, Genejuice); membranes
T1 sequence (O43614 1-444): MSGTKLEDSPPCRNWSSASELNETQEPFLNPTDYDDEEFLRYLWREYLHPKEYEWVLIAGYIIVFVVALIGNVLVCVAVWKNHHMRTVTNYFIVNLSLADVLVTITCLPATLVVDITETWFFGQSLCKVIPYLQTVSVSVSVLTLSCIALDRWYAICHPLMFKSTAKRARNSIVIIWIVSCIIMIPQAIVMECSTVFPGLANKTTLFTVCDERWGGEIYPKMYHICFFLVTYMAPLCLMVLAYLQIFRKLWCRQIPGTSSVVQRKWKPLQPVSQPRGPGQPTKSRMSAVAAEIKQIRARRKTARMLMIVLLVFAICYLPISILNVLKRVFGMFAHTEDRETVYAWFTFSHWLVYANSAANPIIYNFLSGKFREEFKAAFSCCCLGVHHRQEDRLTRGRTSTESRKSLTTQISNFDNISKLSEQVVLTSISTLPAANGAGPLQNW
Put plainly: 3H-EMPA radioligand binding assay. To be noted: 3H-EMPA displacement, membranes of HEK293 cells transfected with human Orexin-2 receptor; KI by Cheng-Prussoff; read-out: OX2 pKi ave (converted). The procedure: cDNA encoding the human Orexin-2 receptor was transfected into HEK293 cells using the transfection reagent Genejuice (Novagen). Forty-eight hours after transfection, cells were harvested and washed twice with ice cold phosphate-buffered saline. The pellet was resuspended in ice-cold buffer containing 20 mM Tris-HCl, pH 7.4, 1 mM EDTA and homogenised with an Ultraturax for 30 s at maximum speed. After centrifugation at 48,000 g for 30 min at 4° C., the pellet was resuspended and spun again. The final pellet was resuspended and frozen at −80° C. before use. Protein concentration was determined using the BCA protein assay method.
^3H-EMPA Radioligand Binding Assay
At the end of the incubation, membranes were filtered onto a unifilter, a 96-well white microplate with bonded GF/B filter pre-incubated with 0.5% polyethylenimine, with a Tomtec cell harvester and washed 4 times with distilled water. […] Radioactivity on the filter was counted (1 min) on a microbeta counter after addition of 50 µL of scintillation fluid. […] IC50 values were derived from the inhibition curve and the equilibrium dissociation constant (KI) values were calculated using the Cheng-Prussoff equation.
Regarding `Cc1ccc(N2C(=O)N(Cc3c(F)cccc3Cl)c3ccccc3S2(=O)=O)c(C)c1` [Example 45, 4-(2-chloro-6-fluorobenzyl)-2-(2,4-dimethylphenyl)-2H-1,2,4-benzothiadiazin-3(4H)-one 1,1-dioxide], the Ki is 16.6 nM.

Consider `Cc1ccc(Cl)cc1N1C(=O)N(Cc2c(F)cccc2Cl)c2ccccc2S1(=O)=O` [Example 41, 4-(2-chloro-6-fluorobenzyl)-2-(5-chloro-2-methylphenyl)-2H-1,2,4-benzothiadiazin-3(4H)-one 1,1-dioxide], for which the Ki was 25.1 nM.

With `Cc1ccc(N2C(=O)N(Cc3c(F)cccc3Cl)c3ccccc3S2(=O)=O)cc1F` [Example 43, 4-(2-chloro-6-fluorobenzyl)-2-(3-fluoro-4-methylphenyl)-2H-1,2,4-benzothiadiazin-3(4H)-one 1,1-dioxide], the Ki is 4.68 nM.

As for `COc1cccc(N2C(=O)N(Cc3c(F)cc(F)cc3Cl)c3ccccc3S2(=O)=O)n1` [Example 139, 4-(2-Chloro-4,6-difluorobenzyl)-2-(6-methoxypyridin-2-yl)-2H-1,2,4-benzothiadiazin-3(4H)-one 1,1-dioxide], the Ki was 13.8 nM.

Turning to `COc1c(C)cc(N2C(=O)N(Cc3c(F)cccc3Cl)c3ccccc3S2(=O)=O)cc1C` [Example 81, 4-(2-Chloro-6-fluorobenzyl)-2-(4-methoxy-3,5-dimethylphenyl)-2H-1,2,4-benzothiadiazin-3(4H)-one 1,1-dioxide], the Ki is 0.0832 nM.

As for `COc1ccc(N2C(=O)N(Cc3ccc4c(c3)OCO4)c3ccccc3S2(=O)=O)cc1OC` [Example 1, 4-(1,3-benzodioxol-5-ylmethyl)-2-(3,4-dimethoxyphenyl)-2H-1,2,4-benzothiadiazin-3(4H)-one 1,1-dioxide], the Ki is 316 nM.

As for `COc1ccc(N2C(=O)N(Cc3ccc(F)cc3Cl)c3ccccc3S2(=O)=O)cc1OC` [Example 21, 4-(2-chloro-4-fluorobenzyl)-2-(3,4-dimethoxyphenyl)-2H-1,2,4-benzothiadiazin-3(4H)-one 1,1-dioxide], the Ki was 23.4 nM.

In the case of `Cc1ccc(N2C(=O)N(Cc3c(F)cccc3Cl)c3ccccc3S2(=O)=O)cc1C` [Example 34, 4-(2-chloro-6-nuorobenzyl)-2-(3,4-dimethylphenyl)-2H-1,2,4-benzothiadiazin-3(4H)-one 1,1-dioxide], the Ki was 1.12 nM.

Turning to `CNc1cc(N2C(=O)N(Cc3c(F)cc(OC)cc3F)c3ncccc3S2(=O)=O)cnc1OC` [Example 186, 4-(2,6-Difluoro-4-methoxybenzyl)-2-[6-methoxy-5-(methylamino)pyridin-3-yl]-2H-pyrido[2,3-e][1,2,4]thiadiazin-3(4H)-one 1,1-dioxide], the Ki was 1.26 nM.

Turning to `Cc1nc(CN2C(=O)N(Cc3c(F)cccc3F)c3ccccc3S2(=O)=O)cs1` [Example 119, 4-(2,6-Difluorobenzyl)-2-[(2-methyl-1,3-thiazol-4-yl)methyl]-2H-1,2,4-benzothiadiazin-3(4H)-one 1,1-dioxide], the Ki was 66.1 nM.

On to `Cc1ccc(C)c(N2C(=O)N(Cc3c(F)cccc3Cl)c3ccccc3S2(=O)=O)c1` [Example 32, 4-(2-chloro-6-fluorobenzyl)-2-(2,5-dimethylphenyl)-2H-1,2,4-benzothiadiazin-3(4H)-one 1,1-dioxide], for which the Ki was 28.2 nM.

For `Cc1ccc(N2C(=O)N(Cc3c(F)cc(F)cc3F)c3ncccc3S2(=O)=O)cc1C` [Example 101, 2-(3,4-Dimethylphenyl)-4-(2,4,6-trifluorobenzyl)-2H-pyrido[2,3-e][1,2,4]thiadiazin-3(4H)-one 1,1-dioxide], the Ki is 3.47 nM.

On to `COc1ccc(N2C(=O)N(Cc3c(F)cccc3Cl)c3c(F)cccc3S2(=O)=O)cn1` [Example 123, 4-(2-Chloro-6-fluorobenzyl)-5-fluoro-2-(6-methoxypyridin-3-yl)-2H-1,2,4-benzothiadiazin-3(4H)-one 1,1-dioxide], for which the Ki was 43.7 nM.

Take `COc1cc(OC)cc(N2C(=O)N(Cc3ccccc3F)c3ccccc3S2(=O)=O)c1` [Example 13, 2-(3,5-dimethoxyphenyl)-4-(2-fluorobenzyl)-2H-1,2,4-benzothiadiazin-3(4H)-one 1,1-dioxide]: the Ki was 26.9 nM.

In the case of `O=C1N(Cc2c(F)cc(F)cc2F)c2ccccc2S(=O)(=O)N1Cc1cc(=O)[nH]c2ccccc12` [Example 156, 4-(2,4,6-Trifluorobenzyl)-2-[(2-oxo-1,2-dihydroquinolin-4-yl)methyl]-2H-1,2,4-benzothiadiazin-3(4H)-one 1,1-dioxide], the Ki is 11.2 nM.

Consider `COc1cc(N2C(=O)N(Cc3c(F)cc(F)cc3F)c3ncccc3S2(=O)=O)cnc1C` [Example 176, 2-(5-Methoxy-6-methylpyridin-3-yl)-4-(2,4,6-trifluorobenzyl)-2H-pyrido[2,3-e][1,2,4]thiadiazin-3(4H)-one 1,1-dioxide], for which the Ki was 6.46 nM.

In the case of `CSc1cccc(N2C(=O)N(Cc3c(F)cc(F)cc3Cl)c3ccccc3S2(=O)=O)c1` [Example 110, 4-(2-Chloro-4,6-difluorobenzyl)-2-[3-(methylsulfanyl)phenyl]-2H-1,2,4-benzothiadiazin-3(4H)-one 1,1-dioxide], the Ki was 2.69 nM.

On to `CSc1cccc(N2C(=O)N(Cc3cc(C)nn3C)c3ccccc3S2(=O)=O)c1` [Example 83, 4-[(1,3-Dimethyl-1H-pyrazol-5-yl)methyl]-2-[3-(methylsulfanyl)phenyl]-2H-1,2,4-benzothiadiazin-3(4H)-one 1,1-dioxide], for which the Ki was 295 nM.

In the case of `CCN1CCCC(N2C(=O)N(Cc3c(F)cccc3F)c3ccccc3S2(=O)=O)C1` (centres unmarked) [Example 133, 4-(2,6-Difluorobenzyl)-2-(1-ethylpiperidin-3-yl)-2H-1,2,4-benzothiadiazin-3(4H)-one 1,1-dioxide], the Ki is 661 nM.

Consider `CNc1ccc(N2C(=O)N(Cc3c(F)cc(F)cc3F)c3ncccc3S2(=O)=O)nc1OC` [Example 172, 2-[6-methoxy-5-(methylamino)pyridin-2-yl]-4-(2,4,6-trifluorobenzyl)-2H-pyrido[2,3-e][1,2,4]thiadiazin-3(4H)-one 1,1-dioxide], for which the Ki is 7.76 nM.

In the case of `COc1ccccc1N1C(=O)N(Cc2c(F)cccc2Cl)c2ccccc2S1(=O)=O` [Example 35, 4-(2-chloro-6-fluorobenzyl)-2-(2-methoxyphenyl)-2H-1,2,4-benzothiadiazin-3(4H)-one 1,1-dioxide], the Ki is 31.6 nM.

`COc1cc(F)c(CN2C(=O)N(c3cccc(OC)n3)S(=O)(=O)c3ccccc32)c(F)c1` [Example 138, 4-(2,6-Difluoro-4-methoxybenzyl)-2-(6-methoxypyridin-2-yl)-2H-1,2,4-benzothiadiazin-3(4H)-one 1,1-dioxide]: the Ki is 1.45 nM.

Consider `COc1cc(F)c(CN2C(=O)N(c3ccc(OC)c(OC)n3)S(=O)(=O)c3cccnc32)c(F)c1` [Example 164, 4-(2,6-Difluoro-4-methoxybenzyl)-2-(5,6-dimethoxypyridin-2-yl)-2H-pyrido[2,3-e][1,2,4]thiadiazin-3(4H)-one 1,1-dioxide], for which the Ki was 0.661 nM.

Regarding `COc1ccc(N2C(=O)N(Cc3c(Cl)cccc3Cl)c3ccccc3S2(=O)=O)cc1OC` [Example 68, 4-(2,6-Dichlorobenzyl)-2-(3,4-dimethoxyphenyl)-2H-1,2,4-benzothiadiazin-3(4H)-one 1,1-dioxide], the Ki was 0.708 nM.

As for `COc1cc(F)c(CN2C(=O)N(c3cnc(C)c(C)c3)S(=O)(=O)c3ccccc32)c(F)c1` [Example 178, 4-(2,6-difluoro-4-methoxybenzyl)-2-(5,6-dimethylpyridin-3-yl)-2H-1,2,4-benzothiadiazin-3(4H)-one 1,1-dioxide], the Ki is 4.37 nM.

`Cc1cccc(N2C(=O)N(Cc3c(F)cccc3Cl)c3ccccc3S2(=O)=O)c1C` [Example 38, 4-(2-chloro-6-fluorobenzyl)-2-(2,3-dimethylphenyl)-2H-1,2,4-benzothiadiazin-3(4H)-one 1,1-dioxide]: the Ki is 15.8 nM.

Consider `CN(C)c1cccc(N2C(=O)N(Cc3c(F)cc(F)cc3F)c3ccccc3S2(=O)=O)n1` [Example 158, 2-[6-(Dimethylamino)pyridin-2-yl]-4-(2,4,6-trifluorobenzyl)-2H-1,2,4-benzothiadiazin-3(4H)-one 1,1-dioxide], for which the Ki was 3.39 nM.

Turning to `O=C1N(Cc2c(F)cccc2Cl)c2ccccc2S(=O)(=O)N1CC1CCOCC1` [Example 117, 4-(2-Chloro-6-fluorobenzyl)-2-(tetrahydro-2H-pyran-4-ylmethyl)-2H-1,2,4-benzothiadiazin-3(4H)-one 1,1-dioxide], the Ki is 372 nM.

For `COc1cc(F)c(CN2C(=O)N(c3ccc(C)c(C)c3)S(=O)(=O)c3cccnc32)c(F)c1` [Example 102, 4-(2,6-Difluoro-4-methoxybenzyl)-2-(3,4-dimethylphenyl)-2H-pyrido[2,3-e][1,2,4]thiadiazin-3(4H)-one 1,1-dioxide], the Ki is 0.776 nM.

(Values after patent US10316028B2, “Orexin receptor antagonists” (Heptares Therapeutics Limited, priority 2012, dated 2019).)
